Assay results reported in the NIST ThermoML archive (doi:10.1016/j.jct.2006.03.018).
± gives the expanded uncertainty stated by the source.

How the values were obtained:
[1] = xn = mol fraction of the nth substance listed; settings: 101 kPa, Liquid
[2] = refractive index (Na D-line) (dimensionless); xn = mol fraction of the nth substance listed; settings: 101 kPa, Liquid

CCCO [propan-1-ol] + COc1ccccc1
x2 = 0
Settings | mass density, 298.15 K [kg/m3] | mass density, 303.15 K [kg/m3] | mass density, 308.15 K [kg/m3] | refractive index, 298.15 K | refractive index, 303.15 K | refractive index, 308.15 K | speed of sound, 298.15 K [m/s] | viscosity, 298.15 K [mPa·s] | viscosity, 303.15 K [mPa·s] | viscosity, 308.15 K [mPa·s]
[1] | 799.96 ± 3.5 | 795.93 ± 3.6 | 791.86 ± 3.6 | – | – | – | 1206 ± 42 | 1.792 ± 0.21 | 1.706 ± 0.2 | 1.518 ± 0.18
[2] | – | – | – | 1.3826 ± 0.005 | 1.3808 ± 0.005 | 1.3782 ± 0.005 | – | – | – | –

CC(C)O [propan-2-ol] + COc1ccccc1
x2 = 0
Settings | mass density, 298.15 K [kg/m3] | mass density, 303.15 K [kg/m3] | mass density, 308.15 K [kg/m3] | refractive index, 298.15 K | refractive index, 303.15 K | refractive index, 308.15 K | speed of sound, 298.15 K [m/s] | viscosity, 298.15 K [mPa·s] | viscosity, 303.15 K [mPa·s] | viscosity, 308.15 K [mPa·s]
[1] | 781.36 ± 3.8 | 777.09 ± 3.8 | 772.75 ± 3.9 | – | – | – | 1141 ± 41 | 2.042 ± 0.24 | 1.755 ± 0.21 | 1.521 ± 0.18
[2] | – | – | – | 1.3745 ± 0.005 | 1.3721 ± 0.005 | 1.3702 ± 0.005 | – | – | – | –

COc1ccccc1 [anisole] + CCO
Settings | mass density, 298.15 K [kg/m3] | mass density, 303.15 K [kg/m3] | mass density, 308.15 K [kg/m3] | refractive index, 298.15 K | refractive index, 303.15 K | refractive index, 308.15 K | speed of sound, 298.15 K [m/s] | viscosity, 298.15 K [mPa·s] | viscosity, 303.15 K [mPa·s] | viscosity, 308.15 K [mPa·s]
[1], x1 = 0.0998 | 822.6 ± 3.2 | 818.11 ± 3.3 | 813.62 ± 3.3 | – | – | – | 1178 ± 83 | 0.995 ± 0.13 | 0.908 ± 0.12 | 0.831 ± 0.11
[1], x1 = 0.1985 | 852.71 ± 2.9 | 848.12 ± 2.9 | 843.52 ± 3 | – | – | – | 1226 ± 86 | 0.934 ± 0.12 | 0.851 ± 0.11 | 0.777 ± 0.1
[1], x1 = 0.2976 | 878.53 ± 2.5 | 873.84 ± 2.6 | 869.14 ± 2.7 | – | – | – | 1277 ± 88 | 0.91 ± 0.12 | 0.829 ± 0.11 | 0.768 ± 0.1
[1], x1 = 0.3973 | 900.47 ± 2.3 | 895.73 ± 2.4 | 890.99 ± 2.4 | – | – | – | 1290 ± 89 | 0.881 ± 0.11 | 0.813 ± 0.11 | 0.747 ± 0.099
[1], x1 = 0.5008 | 920.46 ± 2.1 | 915.68 ± 2.1 | 910.89 ± 2.2 | – | – | – | 1301 ± 89 | 0.882 ± 0.11 | 0.807 ± 0.11 | 0.749 ± 0.1
[1], x1 = 0.5968 | 936.53 ± 1.9 | 931.73 ± 2 | 926.92 ± 2.1 | – | – | – | 1314 ± 90 | 0.849 ± 0.11 | 0.784 ± 0.1 | 0.727 ± 0.097
[1], x1 = 0.7015 | 952.42 ± 1.8 | 947.62 ± 1.9 | 942.81 ± 1.9 | – | – | – | 1326 ± 91 | 0.894 ± 0.12 | 0.832 ± 0.11 | 0.774 ± 0.1
[1], x1 = 0.7935 | 964.6 ± 1.7 | 960.01 ± 1.8 | 955.42 ± 1.8 | – | – | – | 1340 ± 91 | 0.897 ± 0.12 | 0.83 ± 0.11 | 0.772 ± 0.1
[1], x1 = 0.9014 | 977.99 ± 1.6 | 973.42 ± 1.7 | 968.84 ± 1.7 | – | – | – | 1355 ± 92 | 0.923 ± 0.12 | 0.858 ± 0.11 | 0.792 ± 0.1
[1], x1 = 1 | 989.15 ± 1.6 | 984.45 ± 1.6 | 979.73 ± 1.7 | – | – | – | 1412 ± 95 | 0.988 ± 0.13 | 0.913 ± 0.12 | 0.854 ± 0.11
[2], x1 = 0.0998 | – | – | – | 1.3856 ± 0.005 | 1.3838 ± 0.005 | 1.3814 ± 0.005 | – | – | – | –
[2], x1 = 0.1985 | – | – | – | 1.4085 ± 0.005 | 1.4066 ± 0.005 | 1.4039 ± 0.005 | – | – | – | –
[2], x1 = 0.2976 | – | – | – | 1.4284 ± 0.005 | 1.4261 ± 0.005 | 1.4241 ± 0.005 | – | – | – | –
[2], x1 = 0.3973 | – | – | – | 1.4459 ± 0.005 | 1.4428 ± 0.005 | 1.4402 ± 0.005 | – | – | – | –
[2], x1 = 0.5008 | – | – | – | 1.461 ± 0.005 | 1.4586 ± 0.005 | 1.4567 ± 0.005 | – | – | – | –
[2], x1 = 0.5968 | – | – | – | 1.4737 ± 0.005 | 1.4711 ± 0.005 | 1.4695 ± 0.005 | – | – | – | –
[2], x1 = 0.7015 | – | – | – | 1.4864 ± 0.005 | 1.4842 ± 0.005 | 1.4816 ± 0.005 | – | – | – | –
[2], x1 = 0.7935 | – | – | – | 1.4955 ± 0.005 | 1.4934 ± 0.005 | 1.4907 ± 0.005 | – | – | – | –
[2], x1 = 0.9014 | – | – | – | 1.5046 ± 0.005 | 1.5031 ± 0.005 | 1.5008 ± 0.005 | – | – | – | –
[2], x1 = 1 | – | – | – | 1.5137 ± 0.005 | 1.5113 ± 0.005 | 1.5088 ± 0.005 | – | – | – | –

COc1ccccc1 [anisole] + CCCCCO
Settings | mass density, 298.15 K [kg/m3] | mass density, 303.15 K [kg/m3] | mass density, 308.15 K [kg/m3] | refractive index, 298.15 K | refractive index, 303.15 K | refractive index, 308.15 K | speed of sound, 298.15 K [m/s] | viscosity, 298.15 K [mPa·s] | viscosity, 303.15 K [mPa·s] | viscosity, 308.15 K [mPa·s]
[1], x1 = 0.1013 | 828.63 ± 3.3 | 824.77 ± 3.3 | 820.91 ± 3.4 | – | – | – | 1298 ± 45 | 2.677 ± 0.31 | 2.332 ± 0.27 | 2.051 ± 0.24
[1], x1 = 0.2032 | 846.67 ± 3.1 | 842.67 ± 3.1 | 838.66 ± 3.2 | – | – | – | 1311 ± 45 | 2.005 ± 0.24 | 1.773 ± 0.21 | 1.575 ± 0.19
[1], x1 = 0.3022 | 864.26 ± 2.9 | 860.11 ± 2.9 | 855.96 ± 3 | – | – | – | 1324 ± 45 | 1.743 ± 0.21 | 1.545 ± 0.19 | 1.384 ± 0.17
[1], x1 = 0.3946 | 880.67 ± 2.7 | 876.42 ± 2.8 | 872.17 ± 2.8 | – | – | – | 1336 ± 46 | 1.513 ± 0.18 | 1.359 ± 0.17 | 1.219 ± 0.15
[1], x1 = 0.4912 | 897.83 ± 2.5 | 893.47 ± 2.6 | 889.11 ± 2.6 | – | – | – | 1350 ± 46 | 1.318 ± 0.16 | 1.195 ± 0.15 | 1.091 ± 0.14
[1], x1 = 0.5984 | 916.91 ± 2.3 | 912.45 ± 2.4 | 907.98 ± 2.4 | – | – | – | 1361 ± 46 | 1.18 ± 0.15 | 1.072 ± 0.14 | 0.979 ± 0.12
[1], x1 = 0.6976 | 934.59 ± 2.1 | 930.04 ± 2.2 | 925.49 ± 2.2 | – | – | – | 1374 ± 46 | 1.092 ± 0.14 | 0.999 ± 0.13 | 0.916 ± 0.12
[1], x1 = 0.7965 | 952.41 ± 1.9 | 947.78 ± 2 | 943.15 ± 2 | – | – | – | 1388 ± 47 | 1.004 ± 0.13 | 0.927 ± 0.12 | 0.853 ± 0.11
[1], x1 = 0.8974 | 970.59 ± 1.8 | 965.9 ± 1.8 | 961.2 ± 1.9 | – | – | – | 1395 ± 47 | 0.955 ± 0.12 | 0.88 ± 0.11 | 0.919 ± 0.12
[1], x1 = 1 | 989.15 ± 1.6 | 984.45 ± 1.6 | 979.73 ± 1.7 | – | – | – | 1412 ± 47 | 0.988 ± 0.13 | 0.913 ± 0.12 | 0.854 ± 0.11
[2], x1 = 0.1013 | – | – | – | 1.4091 ± 0.005 | 1.4066 ± 0.005 | 1.404 ± 0.005 | – | – | – | –
[2], x1 = 0.2032 | – | – | – | 1.4166 ± 0.005 | 1.4138 ± 0.005 | 1.4112 ± 0.005 | – | – | – | –
[2], x1 = 0.3022 | – | – | – | 1.4237 ± 0.005 | 1.4219 ± 0.005 | 1.4201 ± 0.005 | – | – | – | –
[2], x1 = 0.3946 | – | – | – | 1.4333 ± 0.005 | 1.4302 ± 0.005 | 1.4272 ± 0.005 | – | – | – | –
[2], x1 = 0.4912 | – | – | – | 1.4429 ± 0.005 | 1.4401 ± 0.005 | 1.4379 ± 0.005 | – | – | – | –
[2], x1 = 0.5984 | – | – | – | 1.4561 ± 0.005 | 1.4533 ± 0.005 | 1.451 ± 0.005 | – | – | – | –
[2], x1 = 0.6976 | – | – | – | 1.4667 ± 0.005 | 1.4642 ± 0.005 | 1.4616 ± 0.005 | – | – | – | –
[2], x1 = 0.7965 | – | – | – | 1.4807 ± 0.005 | 1.4778 ± 0.005 | 1.4747 ± 0.005 | – | – | – | –
[2], x1 = 0.8974 | – | – | – | 1.4963 ± 0.005 | 1.4934 ± 0.005 | 1.491 ± 0.005 | – | – | – | –
[2], x1 = 1 | – | – | – | 1.5137 ± 0.005 | 1.5113 ± 0.005 | 1.5088 ± 0.005 | – | – | – | –
